From PubChem BioAssay (NCI)
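GI50 = concentration required for 50% inhibition of growth. TGI marks complete inhibition of growth.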

Legend:
Assay in all cases: NCI tumour cell line growth inhibition, 384-well format
[1] = system: NCI-H23 lung
[2] = system: NCI-H460 NSCLC
[3] = system: HOP-62 NSCLC
[4] = system: MDA-MB-231 breast
[5] = system: CCRF-CEM leukemia
[6] = system: SF-539 CNS
[7] = system: T-47D breast
[8] = system: MDA-MB-468 breast
[9] = system: M14 melanoma
[10] = system: SF-268 CNS
[11] = system: KM12 colon
[12] = system: 786-0 renal
[13] = system: SK-OV-3 ovarian
[14] = system: SNB-75 CNS
[15] = system: ACHN renal
[16] = system: HCC-2998 colon
[17] = system: MALME-3M melanoma
[18] = system: SF-295 CNS
[19] = system: MDA-MB-435 melanoma
[20] = system: HCT-116 colon
[21] = system: UACC-257 melanoma
[22] = system: NCI-H522 lung
[23] = system: UACC-62 melanoma
[24] = system: K-562 leukemia
[25] = system: NCI/ADR-RES ovarian
[26] = system: RXF 393 renal
[27] = system: OVCAR-5 ovarian
[28] = system: IGROV1 ovarian
[29] = system: LOX IMVI melanoma
[30] = system: BT-549 breast
[31] = system: SW-620 colon
[32] = system: OVCAR-3 ovarian
[33] = system: PC-3 prostate
[34] = system: RPMI-8226 leukemia
[35] = system: NCI-H226 lung
[36] = system: SK-MEL-2 melanoma
[37] = system: SK-MEL-5 melanoma
[38] = system: A549 NSCLC
[39] = system: MOLT-4 leukemia
[40] = system: HS 578T breast
[41] = system: HOP-92 NSCLC
[42] = system: TK-10 renal
[43] = system: OVCAR-4 ovarian
[44] = system: SNB-19 CNS
[45] = system: HL-60(TB) leukemia
[46] = system: U251 glioblastoma
[47] = system: EKVX NSCLC

For CC(C)N(CCCNC(=O)Nc1ccc(C(C)(C)C)cc1)C[C@H]1O[C@@H](n2ccc3c(N)ncnc32)[C@H](O)[C@@H]1O, the GI50 [1] was > 100 µM, the TGI [1] was > 100 µM and the GI50 [2] was > 100 µM. The TGI [2] was > 100 µM, the GI50 [3] was > 100 µM and the TGI [3] was > 100 µM. For the same compound, the GI50 [4] was > 100 µM, the TGI [4] was > 100 µM and the GI50 [5] was > 95.3 µM. For the same compound, the TGI [5] was > 100 µM, the GI50 [6] was > 100 µM and the TGI [6] was > 100 µM. The GI50 [7] was > 96.4 µM, the TGI [7] was > 100 µM and the GI50 [8] was 23.1 µM. The TGI [8] was > 100 µM, the GI50 [9] was > 100 µM and the TGI [9] was > 100 µM. The GI50 [10] was > 63.7 µM, the TGI [10] was > 100 µM and the GI50 [11] was > 100 µM. For the same compound, the TGI [11] was > 100 µM, the GI50 [12] was > 100 µM and the TGI [12] was > 100 µM. The GI50 [13] was > 100 µM, the TGI [13] was > 100 µM and the GI50 [14] was > 100 µM. For the same compound, the TGI [14] was > 100 µM, the GI50 [15] was > 100 µM and the TGI [15] was > 100 µM. The GI50 [16] was > 100 µM, the TGI [16] was > 100 µM and the GI50 [17] was 61.6 µM. The TGI [17] was > 100 µM, the GI50 [18] was > 100 µM and the TGI [18] was > 100 µM. The GI50 [19] was > 100 µM, the TGI [19] was > 100 µM and the GI50 [20] was > 100 µM. For the same compound, the TGI [20] was > 100 µM, the GI50 [21] was 41.5 µM and the TGI [21] was > 95.1 µM. The GI50 [22] was > 100 µM, the TGI [22] was > 100 µM and the GI50 [23] was > 100 µM. For the same compound, the TGI [23] was > 100 µM, the GI50 [24] was > 100 µM and the TGI [24] was > 100 µM. The GI50 [25] was > 100 µM, the TGI [25] was > 100 µM and the GI50 [26] was > 100 µM. The TGI [26] was > 100 µM, the GI50 [27] was > 100 µM and the TGI [27] was > 100 µM. For the same compound, the GI50 [28] was > 72.4 µM, the TGI [28] was > 100 µM and the GI50 [29] was > 89 µM. For the same compound, the TGI [29] was > 100 µM, the GI50 [30] was > 100 µM and the TGI [30] was > 100 µM. The GI50 [31] was > 100 µM, the TGI [31] was > 100 µM and the GI50 [32] was > 100 µM. For the same compound, the TGI [32] was > 100 µM, the GI50 [33] was > 100 µM and the TGI [33] was > 100 µM. For the same compound, the GI50 [34] was 18.9 µM, the TGI [34] was > 100 µM and the GI50 [35] was > 100 µM. For the same compound, the TGI [35] was > 100 µM, the GI50 [36] was > 100 µM and the TGI [36] was > 100 µM. For the same compound, the GI50 [37] was > 100 µM, the TGI [37] was > 100 µM and the GI50 [38] was > 100 µM. For the same compound, the TGI [38] was > 100 µM, the GI50 [39] was 44.7 µM and the TGI [39] was > 100 µM. The GI50 [40] was > 100 µM, the TGI [40] was > 100 µM and the GI50 [41] was > 100 µM. For the same compound, the TGI [41] was > 100 µM, the GI50 [42] was > 100 µM and the TGI [42] was > 100 µM. The GI50 [43] was > 100 µM, the TGI [43] was > 100 µM and the GI50 [44] was > 100 µM. For the same compound, the TGI [44] was > 100 µM, the GI50 [45] was > 92.8 µM and the TGI [45] was > 100 µM. For the same compound, the GI50 [46] was > 100 µM, the TGI [46] was > 100 µM and the GI50 [47] was > 100 µM. For the same compound, the TGI [47] was > 100 µM.
